Measured values: US20090054376A1, “BENZOFURAN DERIVATIVES WITH THERAPEUTIC ACTIVITIES” (Pharmos Corporation, priority 2005, published 2009)
Like-named read-outs stand apart in the source and are kept apart here.

Tests used:
[1] = tested on: IL-1β; experiment: Gene expression in LPS activated RAW 264.7 macrophages, IL-1β; assay type: cell-based, mouse; details: RAW 264.7, 10 μM, LPS 1 μg/ml, RNA 3 hrs after activation, vs vehicle treated activated cells
Experimental: (§1) RAW 264.7 macrophages, a mouse cell line (ATCC # TIB 71), were grown in Dulbecco's modified Eagle's medium (DMEM) with 4 mM L-glutamine adjusted to contain 1.5 g/L sodium bicarbonate, 4.5 g/L glucose, and 10% heat inactivated fetal bovine serum. Cells were grown in tissue culture flasks and seeded at appropriate density into 6 wells tissue culture plates. Four million Raw cells in half a milliliter were stimulated with 1 μg/ml LPS E. coli 055:B5 (DIFCO Laboratories). The mouse macrophages were pre-treated for one hour with controls or 10 μM of test compounds, and later on activated with LPS. RNA samples were extracted from the cells 3 hrs after activation and gene expression levels were analyzed by real-time RT-PCR. In parallel, supernatants were collected and secretion of inflammatory mediators was analyzed using ELISA techniques according to the instructions of the kit manufacturer.
(§2) Total RNA is prepared using SV total RNA isolation system (Promega). The cells were homogenized in lysis buffer. The lysates were transferred to an RNA isolation column, treated with DNAse, washed and eluted according to kit instructions. RNA concentrations were determined using GeneQuant II (Pharmacia-Amersham). Complementary DNA (cDNA) was synthesized from total RNA using […] II reverse transcriptase (Life Technologies). 2 μg of total RNA were combined with an oligo (dT)15 primer, 0.5 mM dNTP mix, 8 units of reverse transcriptase and other reaction components up to a final volume of 20 μl, according to the kit instructions. The reaction mixture was incubated at 42° C. for 45 min and inactivated at 70° C. for 15 minutes. Quantitative real-time RT-PCR included 1 μl of the cDNA, 300 nM of the appropriate forward and reverse primers (according to the gene monitored) and 7.5 μl of the reaction mix containing buffer, nucleotides, Taq polymerase and SYBER green (SYBER Green master mix, Applied Biosystems), in a total reaction volume of 15 μl. Gene amplification was obtained using the GeneAmp 5700 sequence detection system (Applied Biosystems). Amplification included one stage of 10 minutes at 95° C. followed by 40 cycles of a 2-steps loop: 20 seconds at 95° C., and 1 minute at 60° C. During each annealing step, the amount of the amplified product was measured by the fluorescence of the double strand DNA binding dye, SYBER Green. The cycle of threshold (CT), representing the PCR cycle at which an increase in fluorescence above a baseline signal can be first detected, was determined for each product. A delay of one PCR cycle in the CT is translated into a two-fold decrease in starting template molecules and vice versa. The changes in the CT of the specific gene product were normalized to the changes in the CT of housekeeping cyclophilin or GAPDH as reference genes. Results were expressed as fold increase of gene expression in treated or untreated activated cells above the resting cells, after normalization to cyclophilin or GAPDH. Cells were also tested for viability to confirm that any effect on gene expression was indeed due to modulation of transcription of a specific target and not to cytoxicity.
(§3) Results were further expressed as percent inhibition of gene expression in compound treated activated cells over vehicle “treated” activated cells. Since the modulation of IL-10 and TNF-α gene expression by the compounds of the invention is relatively minor, it is not reported. […] Inhibition above 50% was considered significant.

[2] = tested on: iNOS; experiment: Gene expression in LPS activated RAW 264.7 macrophages, iNOS; assay type: cell-based, mouse; details: RAW 264.7, 10 μM, LPS 1 μg/ml, RNA 3 hrs after activation, vs vehicle treated activated cells
Experimental: as §1, §2, §3

[3] = tested on: MCP-1; experiment: Gene expression in LPS activated RAW 264.7 macrophages, MCP-1; assay type: cell-based, mouse; details: RAW 264.7, 10 μM, LPS 1 μg/ml, RNA 3 hrs after activation, vs vehicle treated activated cells
Experimental: as §1, §2, §3

[4] = tested on: visceral pain writhing responses; experiment: Visceral pain, acetic acid induced writhing responses; assay type: in vivo, Male ICR mice; details: Mus musculus, iv, single dose 2 mg/kg i.v., compared to untreated group; read-out: Percent Inhibition of Visceral Pain Writhing Responses
Experimental: Male ICR mice (average body weight 25 g, Harlan, Israel) were pretreated by i.v. injection at volume dose of 5 ml/kg of vehicle, control and test compounds at various doses. Other routes of administration were tested for selected compounds including i.m. or s.c. injections at volume dose of 2.5 ml/kg and p.o. gavage at volume dose of 5 ml/kg. Compounds were dissolved in CREMOPHOR®:Ethanol and diluted 1:20 in saline prior to injection or gavage. Compounds administered i.v. were injected fifteen minutes before pain induction, whereas compounds administered i.m., s.c. or p.o. were supplied thirty minutes before pain induction, unless otherwise indicated. Each treatment group, except for controls comprising at least 30 animals, was composed of at least 6 animals. Fifteen or thirty minutes after drug administration, depending on the route of administration, the mice were injected i.p. with 10 ml/kg of 0.6% acetic acid and the number of visceral pain related behaviors (writhing movements globally defined as WR, i.e. stretching, contractions of the abdomen accompanied by an elongation of the body and extension of the hind limbs) was counted over a period of 5 minutes, starting 5 minutes after the acetic acid administration. These visceral pain related behaviors were globally defined as writhing responses (WR). The results are expressed as mean number of writhing responses ±SEM. Data were analyzed using analysis of variance (ANOVA) followed by post-hoc Fisher test.

[5] = tested on: carrageenan induced inflammatory pain and paw edema; experiment: Inflammatory pain and paw edema induced by carrageenan; assay type: in vivo, Male Sprague Dawley rats; details: Rattus norvegicus, ip, 3 hours; for inhibition in vivo at 3 mg/kg: 3 mg/kg i.p. (one asterisk); for inhibition in vivo at 10 mg/kg: 10 mg/kg i.p.
Experimental: Male Sprague Dawley rats (average body weight 200 g, Harlan, Israel) were transiently sedated by placement on dry ice for the duration of the injections. Rats were injected subcutaneously, in the subplantar region of one (right) paw with 0.1 ml of 2% w/v λ Carrageenan in sterile saline. […] Test compounds were, unless otherwise stated, administered i.p. at initial single dose of 3, 10 or 20 mg/kg, and volume dose of 5 ml/kg, immediately after the carrageenan injection. Selected compounds were also tested p.o. following oral gavage. Vehicle and celecoxib treated animals were used as controls. Each treatment group comprised at least seven animals.
Before induction of inflammatory pain and three hours after injection, the animals reactions to pain stimuli were tested in two systems. The first stimulus was thermal and assessed by the Plantar Test according to Hargreaves, using Ugo Basile Model 7370. The scale was set to an intensity of 50 arbitrary units. The latency time till the animal lift a paw as a reaction to the thermal stimulus was recorded for both the inflamed and non-inflamed hind paws. The second stimulus was mechanical (tactile) and assessed using a Dynamic Plantar Sesthesiomether (Ugo Basile Model 73400-002). […] Finally, the impact on paw edema was assessed. Paw thickness was measured using a dial thickness gauge (Spring-dial, constant low pressure gauge, Mitutoyo, TG/L-1, 0.01 mm) and paw volume was measured using a plethysmometer (model #7150, Ugo Basile, Italy). At the end of the study, animals were euthanized.
The results are measured as the differences between the two hind paws at time 0 and 3 hours both as ALT, for the latency time in the thermal part of the study, and as ΔForce, for the mechanical part of the study. The paw volume is expressed as percent from vehicle treated animals. Results are expressed as mean±SEM for each treatment group and the differences among those groups are analyzed by analysis of variance (ANOVA) followed by post-hoc Tukey's test.
Results refer to i.p. treatment with 10 mg/kg. Results marked with one asterisk refer to a dose 3 mg/kg, whereas two asterisks refer to 20 mg/kg. Celecoxib is included as reference.

[6] = target: T1, Human CB1 Receptor (Homo sapiens, UniProt P21554); experiment: [35S]GTPγS-binding assay, hCB1; assay type: biochemical; details: NB = no binding; for Emax: upper plateau of curve
T1 construct: expressed in transfected cells; host or cells: HEK-293 cells (membranes)
T1 sequence (P21554 whole entry): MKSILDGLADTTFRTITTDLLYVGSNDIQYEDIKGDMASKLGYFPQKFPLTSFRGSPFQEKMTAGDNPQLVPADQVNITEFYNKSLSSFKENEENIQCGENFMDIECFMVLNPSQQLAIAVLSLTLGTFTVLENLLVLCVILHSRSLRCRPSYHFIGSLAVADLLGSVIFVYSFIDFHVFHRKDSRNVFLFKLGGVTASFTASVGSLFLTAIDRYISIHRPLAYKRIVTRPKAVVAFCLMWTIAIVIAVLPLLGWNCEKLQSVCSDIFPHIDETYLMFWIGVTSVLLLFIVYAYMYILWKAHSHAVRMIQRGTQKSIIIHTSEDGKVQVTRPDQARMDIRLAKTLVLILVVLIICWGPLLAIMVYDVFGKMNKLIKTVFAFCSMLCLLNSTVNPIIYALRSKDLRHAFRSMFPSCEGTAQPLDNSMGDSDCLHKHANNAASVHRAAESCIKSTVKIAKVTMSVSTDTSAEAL
Experimental: (§4) Functional activity of compounds of the invention toward the cannabinoid receptors was determined by stimulation of [^35S]-GTPγS binding using membranes from HEK-293 cells expressing the hCB1 receptor and membranes expressing the hCB2 receptor derived from either Sf9 (PerkinElmer) or from HEK-293 cells. Activities were compared to that of the known cannabinoid full agonist CP55940 (Alexis). The purpose of this experiment is to determine the potency of the compounds of the invention as agonists or antagonists toward each of the receptor tested.
(§5) [^35S]-GTPγS binding reactions were performed at 30° C. in 96-well plates containing 5-10 μg membrane protein suspended in 0.1 ml binding buffer [20 mM HEPES-NaOH, pH 7.4, 5 mM MgCl2, 100 mM NaCl, 0.2% (w/v) bovine serum albumin] supplemented with 50 μM GDP and 0.06 nM-10 μM of the compound being tested. Binding was initiated by the addition of [^35S]GTPγS (0.3 nM final concentration). Incubations were performed for 90 minutes and were terminated by filtration on GF/C filter plates (PerkinEimer). Filters were washed ten times with ice-cold wash buffer (20 mM HEPES-NaOH, pH 7.4, 10 mM sodium pyrophosphate). Non-specific binding was measured in the presence of 15 μM GTPγS.
(§6) Assays were performed in duplicates. Data was analyzed by plotting on the X axis the log concentration against percent of specific [^35S]GTPγS binding out of basal [^35S]GTPγS binding on the Y axis, non-linear regression is then performed using GraphPad Prism, version 3.0 (GraphPad, San Diego, Calif.) to calculate the EC50 and Emax of the compound. The EC50 value represents the concentration at which there is 50% [^35S]GTPγS binding and the Emax value the upper plateau of the curve.

[7] = target: T2, Human CB2 Receptor (Homo sapiens, UniProt P34972); experiment: [35S]GTPγS-binding assay, hCB2; assay type: biochemical; details: for EC50 / Emax / agonistic activity toward cannabinoid receptors (in words): GTPγS; for EC50 / Emax: Human CB2 Receptor, NB = no binding; for Emax: upper plateau of curve; for agonistic activity toward cannabinoid receptors (in words): hCB1 and hCB2; for selectivity toward CB2: GTPγS agonism, CB2 versus CB1
T2 construct: host or cells: Sf9 or HEK-293 cells (membranes)
T2 sequence (P34972 whole entry): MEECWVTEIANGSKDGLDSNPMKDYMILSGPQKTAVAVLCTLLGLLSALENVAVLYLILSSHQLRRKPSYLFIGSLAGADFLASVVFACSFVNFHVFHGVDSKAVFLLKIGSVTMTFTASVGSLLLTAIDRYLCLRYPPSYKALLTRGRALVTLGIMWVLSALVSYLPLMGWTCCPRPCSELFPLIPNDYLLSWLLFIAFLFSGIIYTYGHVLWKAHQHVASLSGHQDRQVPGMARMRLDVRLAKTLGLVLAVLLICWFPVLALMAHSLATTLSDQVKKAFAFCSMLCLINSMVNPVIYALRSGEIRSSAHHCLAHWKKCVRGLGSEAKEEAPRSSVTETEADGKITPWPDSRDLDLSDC
Experimental: as §4, §5, §6

[8] = mechanical stimulus, read-out: Percent Inhibition of Inflammatory Pain Responses, ΔForce
[9] = thermal stimulus, read-out: Percent Inhibition of Inflammatory Pain Responses, ΔLT

SMILES | Percent inhibition of gene expression, IL-1β [1] | Percent inhibition of gene expression, iNOS [2] | Percent inhibition of gene expression, MCP-1 [3] | inhibition in vivo at 2 mg/kg [4] | inhibition in vivo at 20 mg/kg ([5]; 20 mg/kg i.p. (two asterisks), reduction in paw swelling, read-out: Percent Inhibition of Inflammatory Pain Responses, Edema) | EC50 [6] | Emax [6] | EC50 [7] | Emax [7] | agonistic activity toward cannabinoid receptors (in words) [7] | inhibition in vivo at 3 mg/kg [5, 8] | inhibition in vivo at 3 mg/kg ([5]; reduction in paw swelling, read-out: Percent Inhibition of Inflammatory Pain Responses, Edema) | inhibition in vivo at 3 mg/kg [5, 9] | selectivity toward CB2 [7] | inhibition in vivo at 10 mg/kg [5, 8] | inhibition in vivo at 10 mg/kg [5, 9]
CCCCCCC(C)(C)c1cc(O)c2c(c1)OC1CCCCC21 (stereo not drawn) [Compound C6S-1, 3-(1,1-Dimethylheptyl)-5a,6,7,8,9,9a-hexahydro-dibenzofuran-1-ol] | NO (NO indicates that the compound tested did not significantly affect the transcription of the gene assessed and that its activity is comparable to vehicle, within ±20% from this control) | NO (NO indicates that the compound tested did not significantly affect the transcription of the gene assessed and that its activity is comparable to vehicle, within ±20% from this control) | 66% | 39% | 48% | – | – | – | – | – | – | – | – | – | – | –
CCCCCCC(C)(C)c1cc(O)c2c(c1)OC1CC(C)(C)CCC21 (stereo not drawn) [Compound C6S-17, 3-(1,1-dimethylheptyl)-7,7-dimethyl-5a,6,7,8,9,9a-hexahydro-dibenzofuran-1-ol] | – | – | – | 38% | – | 2880 nM | -25% | 4 nM | 43% | agonists specific toward the CB2 receptor | 37% | 44% | 60% | – | – | –
CCCCCCC(C)(C)c1cc(OC(=O)C=CC(=O)O)c2c(c1)OC1C(I)CCCCC21 (stereo not drawn) [Compound C7S-28, But-2-enedioic acid mono-[2-(1,1-dimethylheptyl)-9-iodo-5,6,7,8,9,9a-hexahydro-4bH-10-oxa-benzo[α]azulen-4-yl]ester] | – | – | – | 56% | – | 217 nM | 118% | 16 nM | 44% | agonists toward both receptors with some degree of selectivity toward the CB2 receptor | – | – | – | about 10 fold | – | –
CCCCC(C)(C)c1cc(OC(=O)C=CC(=O)O)c2c3c(oc2c1)CCCC3 [Compound C6M-8, But-2-enedioic acid mono-[3-(1,1-dimethylpentyl)-6,7,8,9-tetrahydro-dibenzofuran-1-yl]ester] | 51% | 66% | 85% | – | – | 0.25 nM | -25% | > 10000 nM | – | – | – | – | – | – | 20% | 45%
CCCCCCC(C)(C)c1cc(O)c2c(c1)OC1C(O)CCCCC21 (single isomer, unassigned) [Compound C7S-29, 2-(,1-dimethylheptyl)-5,6,7,8,9,9a-hexahydro-4bH-10-oxa-benzo[α]azulen-4,9-diol] | – | – | – | > 90% | – | 79 nM | 41% | 54 nM | 60% | agonists toward both receptors with some degree of selectivity toward the CB2 receptor | – | – | – | non-selective agonist | – | –
